target: T1, recombinant human protein kinase CK2 alpha subunit (Homo sapiens, UniProt P68400); assay: Capillary electrophoresis (CE) CK2 assay; format: biochemical; conditions: ATP 100 µM, peptide substrate 100 µM; 30 °C, 40 min; triplicate; Hill fit
Description: (§1) The study was conducted using recombinant human protein kinase CK2 alpha subunit, obtained using plasmid pZW6 (Addgene, USA, catalogue number 27086), ATP (Sigma-Aldrich, USA, catalogue number A2383) and peptide substrate RRRDDDSDDD (GenScript, USA, catalogue number RP10318). Tris(hydroxymethyl)aminomethane hydrochloride (Tris-HCl) (Sigma-Aldrich, USA, catalogue number 10812846001), KCl (Sigma-Aldrich, USA, catalogue number P3911) and MgCl2 (Sigma-Aldrich, USA, catalogue number 208337) were used to prepare the reaction buffer. Dimethyl sulfoxide (DMSO) (Sigma-Aldrich, USA, catalogue number 472301) was used as a solvent for the compounds. Luminescent assays were performed using Kinase-Glo® kit (Promega, USA, catalogue number V6711). Aurone derivatives were synthesised following the procedure[20] described earlier starting from the benzo[e]benzofuran-1-one intermediate obtained in a known manner. The structures of tested aurone derivatives are given in the Results section.
(§2) The reaction mixture volume was 50 μl. The reaction buffer contained 2 mM Tris HCl, 5 mM KCl and 1 mM MgCl2, pH 7.5. The concentration of CK2 alpha subunit was 2 mg/l per sample in control and experimental samples. The reaction mixtures contained 0.5 μl of inhibitor solution in DMSO per sample (final inhibitor concentrations were different in luminescent and CE assays) or 0.5 μl of pure DMSO in control and calibration samples. The samples were incubated at 30 °C for 40 min.
The initial concentrations of ATP and peptide substrate were 100 µM. The reaction was stopped by adding 100 μl of 20 mM EDTA disodium salt. All IC50 studies were performed in triplicate. Mean conversion values for each concentration were used for construction of the conversion-versus-concentration curves and IC50 determination.
The conversion was determined by the formula: C=100∗P/P+N
C is the conversion in percent, P is the peak area of the phosphorylated product, and N is the peak area of the substrate.
Inhibition was calculated using the formula: I=100∗ Co−Ce/Co
I – inhibition in percent, Со – conversion in control sample, Се – conversion in experimental sample.
For the tested compounds, inhibition curves were plotted as a function of concentration and fitted using the Hill equation: y=x^n/k^n+x^n y – inhibition in percent, x – inhibitor concentration, k – IC50 value, n – Hill coefficient.
Inhibition curves were built using at least four data points, with additional concentrations tested for some compounds to refine the curve’s shape. The IC50 value was determined from the fitted curve as the concentration producing 50% inhibition.
All electrophoretic separations were performed with a capillary electrophoresis system Сapel-105M (Lumex). Fused silica (Lumex) of a total length of 75 cm (effective length 65 cm) with inner diameter 50 μm was used. Before use, fused silica was washed for 5 min with 0.1 M HCl solution, then 5 min with distilled water, then 5 min with 0.1 M NaOH solution, again for 5 min with distilled water and for 5 min with background electrolyte (BGE).
A 150 mM orthophosphoric acid (pH 1.2) was used as BGE. Before electrophoretic separation, 350 μl of deionised water was added to the samples. Samples were introduced hydrodynamically at 900 mbar*s. The electrophoresis voltage was 25 kV. Electrophoretic separation was carried out in positive polarity. Detection conducted at a wavelength of 192 nm. Instrument control, data collection and integration were performed with Elforun (Lumex) software.

T1 sequence (P68400 whole entry): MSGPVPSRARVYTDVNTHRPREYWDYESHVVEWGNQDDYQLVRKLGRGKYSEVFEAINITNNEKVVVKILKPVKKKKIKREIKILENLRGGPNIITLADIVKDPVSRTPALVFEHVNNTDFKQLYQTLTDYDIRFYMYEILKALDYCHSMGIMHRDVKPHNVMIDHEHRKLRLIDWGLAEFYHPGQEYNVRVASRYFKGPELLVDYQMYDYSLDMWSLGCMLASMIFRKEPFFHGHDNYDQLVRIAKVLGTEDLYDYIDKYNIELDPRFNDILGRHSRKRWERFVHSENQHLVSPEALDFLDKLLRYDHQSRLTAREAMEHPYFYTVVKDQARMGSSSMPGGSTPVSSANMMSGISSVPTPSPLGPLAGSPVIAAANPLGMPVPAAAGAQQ

Compound	IC50
O=C1C(=Cc2ccc(O)c([N+](=O)[O-])c2)Oc2c1ccc1ccccc21 [BFO22]	680 nM
COc1cc(C=C2Oc3ccc4ccccc4c3C2=O)ccc1O [BFO23]	130 nM
O=C1C(=Cc2ccc(O)c(F)c2)Oc2ccc3ccccc3c21 [BFO24]	220 nM
O=C1C(=Cc2ccc(O)c(Cl)c2)Oc2ccc3ccccc3c21 [BFO25]	3 nM
COc1cc(C=C2Oc3ccc4ccccc4c3C2=O)cc([N+](=O)[O-])c1O [BFO26]	130 nM
O=C1C(=Cc2ccc(O)c(Br)c2)Oc2ccc3ccccc3c21 [BFO27]	13 nM

target: T1, recombinant human protein kinase CK2 alpha subunit; assay: Luminescent (Kinase-Glo) CK2 screening assay; format: biochemical; conditions: inhibitor 1 μM; ATP 10 µM, peptide substrate RRRDDDSDDD 200 µM; 30 °C, 40 min; triplicate; LI = luciferase inhibition (luminescence lower than control)
Description: as §1, §2
The luminescent assay measured sample luminescence following the addition of the Kinase-Glo luciferase mixture, with the signal reflecting the remaining ATP content. The final ATP concentration indicates the extent of peptide phosphorylation: higher ATP levels correspond to lower peptide phosphorylation. This method was considered as a rapid and straightforward approach for screening a large number of compounds without quantitatively determining their activity.
ATP and peptide substrate were initially present at concentrations of 10 µM and 200 µM, respectively. Calibration samples, which lacked the enzyme, represented the initial ATP concentration. The inhibitor concentration in experimental samples was 1 µM. Measurements were performed using a LuMate 4400 microplate reader (Awareness Technology, USA). Luminescence was recorded after adding 50 µL of the Kinase-Glo luminescent mixture to each sample. In order to simplify the screening process, no signal–concentration calibration curve was constructed for precise ATP quantification. Instead, luminescence values of experimental and control samples were compared directly with those of enzyme-free calibration samples, which reflected the initial ATP level. The percentage of inhibition was determined by the formula: I=100∗(Me−Mc)/(Mo−Mc)
I is the inhibition in percent, Me, Mc and Mo are the luminescence of the experimental, calibration and control samples, respectively. The experiments were performed in triplicate, after which the obtained values were averaged.
This effect may result from the inhibition of luciferase activity. The decrease in luminescence reflects not increased ATP consumption by CK2 during peptide phosphorylation, but rather reduced oxyluciferin formation – the luminescent product – caused by luciferase inhibition by the test compound. The manufacturer of the Kinase-Glo kit, as well as practical studies of protein kinases claim the possibility of this effect[23]^,[24]. […] Furthermore, some compounds with potential luciferase inhibitory activity could have produced false-negative results.
This deviation was most pronounced in samples with low absolute luminescence values (and consequently, low inhibition).

Compound	I (%) (inhibition)
O=C1C(=Cc2ccc(O)c([N+](=O)[O-])c2)Oc2c1ccc1ccccc21 [BFO22]	80 ± 13%
COc1cc(C=C2Oc3ccc4ccccc4c3C2=O)ccc1O [BFO23]	85 ± 14%
O=C1C(=Cc2ccc(O)c(F)c2)Oc2ccc3ccccc3c21 [BFO24]	95 ± 23%
O=C1C(=Cc2ccc(O)c(Cl)c2)Oc2ccc3ccccc3c21 [BFO25]	88 ± 11%
COc1cc(C=C2Oc3ccc4ccccc4c3C2=O)cc([N+](=O)[O-])c1O [BFO26]	90 ± 7%
O=C1C(=Cc2ccc(O)c(Br)c2)Oc2ccc3ccccc3c21 [BFO27]	86 ± 1%
O=C1/C(=C/c2ccc(O)c(F)c2)Oc2ccccc21 [Compound 1]	36 ± 12%
COc1cccc(C=C2Oc3ccccc3C2=O)c1O [Compound 2]	<25%
O=C1/C(=C/c2ccccc2O)Oc2cc(O)ccc21 [Compound 3]	<25%
O=C(O)c1ccc(C=C2Oc3cc(O)ccc3C2=O)cc1 [Compound 4]	41 ± 9%
COc1cc(C=C2Oc3cc(O)ccc3C2=O)cc(Cl)c1O [Compound 5]	48 ± 21%
CCOc1cc(/C=C2\Oc3cc(O)ccc3C2=O)ccc1O [Compound 6]	<25%
COc1ccc2c(c1)OC(=Cc1ccccc1O)C2=O [Compound 7]	<25%
COc1ccc2c(c1)OC(=Cc1cccc(O)c1)C2=O [Compound 8]	<25%
COc1ccc2c(c1)OC(=Cc1ccc(O)cc1)C2=O [Compound 9]	<25%
COc1ccc2c(c1)OC(=Cc1ccc(O)c(OC)c1)C2=O [Compound 10]	27 ± 19%
O=C(O)COc1ccc2c(c1)OC(=Cc1cccc(F)c1)C2=O [Compound 11]	<25%
O=C(O)COc1ccc2c(c1)OC(=Cc1ccc(C(=O)O)cc1)C2=O [Compound 12]	<25%
O=C1C(=Cc2ccccc2O)Oc2ccc(O)cc21 [Compound 13]	<25%
Cc1cc(C=C2Oc3ccc(Br)cc3C2=O)ccc1O [Compound 14]	<25%
O=C1C(=Cc2ccc(O)c(F)c2)Oc2ccc(Br)cc21 [Compound 15]	<25%
O=C1C(=Cc2ccc(O)c(F)c2)Oc2ccc(Cl)cc21 [Compound 16]	<25%
Cc1cc(C=C2Oc3ccc(Cl)cc3C2=O)ccc1O [Compound 17]	<25%

Compound	I (%) (inhibition)
Cc1cc(C=C2Oc3c(Cl)ccc(Cl)c3C2=O)ccc1O [Compound 18]	<25%
O=C1C(=Cc2ccc(O)c(F)c2)Oc2c(Cl)ccc(Cl)c21 [Compound 19]	61 ± 15%
Cc1cc(/C=C2\Oc3cc(C)c(Cl)c(C)c3C2=O)ccc1O [Compound 20]	<25%
Cc1cc2c(c(C)c1Cl)C(=O)C(=Cc1ccc(O)c(F)c1)O2 [Compound 21]	<25%
O=C(O)c1ccc(C=C2Oc3c(ccc4ccccc34)C2=O)cc1 [Compound 22]	<25%
O=C1C(=Cc2ccc(O)cc2)Oc2c1ccc1ccccc21 [Compound 23]	<25%
COc1cc(C=C2Oc3c(ccc4ccccc34)C2=O)ccc1O [Compound 28]	<25%
O=C(O)c1cc(C=C2Oc3c(ccc4ccccc34)C2=O)ccc1O [Compound 31]	<25%
O=C1C(=Cc2ccc(O)c(Cl)c2)Oc2c1ccc1ccccc21 [Compound 32]	68 ± 15%
O=C1C(=Cc2cc(Cl)c(O)c(Cl)c2)Oc2c1ccc1ccccc21 [Compound 33]	<25%
O=C1C(=Cc2ccc(O)c(Br)c2)Oc2c1ccc1ccccc21 [Compound 34]	<25%
O=C1C(=Cc2cc(Br)c(O)c(Br)c2)Oc2c1ccc1ccccc21 [Compound 35]	39 ± 14%
O=C1C(=Cc2ccc(O)c(F)c2)Oc2c1ccc1ccccc21 [Compound 36]	<25%
O=C1C(=Cc2ccc(O)cc2)Oc2ccc3ccccc3c21 [Compound 38]	<25%
O=C(O)c1ccc(C=C2Oc3ccc4ccccc4c3C2=O)cc1 [Compound 39]	69 ± 24%
O=C1C(=Cc2cccc(O)c2)Oc2ccc3ccccc3c21 [Compound 40]	<25%
O=C1C(=Cc2ccc(O)c(O)c2)Oc2ccc3ccccc3c21 [Compound 41]	<25%
Cc1cc(C=C2Oc3ccc4ccccc4c3C2=O)ccc1O [Compound 45]	<25%
O=C(O)c1cc(C=C2Oc3ccc4ccccc4c3C2=O)ccc1O [Compound 48]	32 ± 24%
O=C1C(=Cc2cc(Cl)c(O)c(Cl)c2)Oc2ccc3ccccc3c21 [Compound 51]	78 ± 22%
COc1cc(C=C2Oc3ccc4ccccc4c3C2=O)cc(Cl)c1O [Compound 52]	46 ± 15%
O=C1/C(=C/c2cc(Br)c(O)c(Br)c2)Oc2ccc3ccccc3c21 [Compound 54]	69 ± 1%
